Target: SAT1 (flag-tagged recombinant SAT1) (Homo sapiens, UniProt P21673)
Experiment: DTNB-coupled SAT1 activity assay, Lineweaver-Burk plot
Assay type: biochemical
Settings: co-substrate histone H3 (200 ng); pH 8.0, 35 °C; no ginkgolide B

Sequence of SAT1 (flag-tagged recombinant SAT1) (P21673 whole entry): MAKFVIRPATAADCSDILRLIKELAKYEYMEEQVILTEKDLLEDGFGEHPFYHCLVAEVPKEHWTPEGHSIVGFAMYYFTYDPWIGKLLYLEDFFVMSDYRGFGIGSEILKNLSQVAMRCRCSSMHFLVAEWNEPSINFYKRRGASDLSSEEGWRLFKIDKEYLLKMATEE

Structure (SMILES): CC(=O)SCCNC(=O)CCNC(=O)[C@H](O)C(C)(C)COP(=O)(O)OP(=O)(O)OC[C@H]1O[C@@H](n2cnc3c(N)ncnc32)[C@H](O)[C@@H]1OP(=O)(O)O [acetyl-CoA]
- km: Both the Vmax and km values decreased with the addition of GB
